Results reported in patent publication US10246786B2, “Renewable bioelectronic interface for electrobiocatalytic reactor” (priority 2009, dated 2019).

What was measured:
[1] = system: Mannitol dehydrogenase from Thermotoga maritima (TmMtDH); assay: Cyclic voltammetry of the Gly-TBO-PEI-NADH-TmMtDH-modified electrode with sugar substrates (calibration plot, saturation current, turnover); format: biochemical; conditions: substrate tested on Gly-TBO-PEI-NADH-TmMtDH-modified electrode; 100 mM PBS pH 6.0, 60° C.
Description: Cyclic voltammetric experiments were conducted by sweeping the potential of the working electrode between 200 mV and −600 mV at a scan rate of 100 mV s^−1, causing fructose in the vicinity of the electrode to be reduced to mannitol in the […] direction and mannitol to be oxidized to fructose in the reverse direction. All electrochemical measurements were made in 100 mM PBS (pH 6.0) at 60° C. using an electrode with a controlled surface area of 0.07 cm^2. The slope of the calibration plot, which depicts peak current vs. concentration, is a measure of the biosensor's sensitivity. The maximum turnover rate (TRmax), which corresponds to the number of fructose molecules reduced per TmMtDH molecule per second, was calculated using Eq. 6 (Eisenwiener and Schulz, 1969):
[formula] where the background current (I0) and saturation current (Icat^sat) are given by the y-intercept of the calibration curve and the plateau current at a given concentration, respectively. Electrochemical Impedance Spectroscopy
The slope of the calibration curve (0.70±0.01 μA) mM^−1 cm^−2) is a measure of the biosensor's sensitivity. At higher concentrations, the anodic current reached a saturation value (Icat^sat=740.9±11.6 μA cm^−2). This value was used to calculate a TRmax, which represents the number of molecules of fructose reduction per TmMtDH molecule per second, of 57.5±2.8 s^−1, using Eq. 6 (Eisenwiener and Schulz, 1969).
The selectivity of the Gly-TBO-PEI-NADH-TmMtDH-modified electrode was examined by testing alternative substrates.

[2] = carboxylic acid group; cited from earlier work

Row | Structure (SMILES) | Icat^sat [1] | Sensitivity [1] | pKa [2]
1 | OC1COC(O)C(O)C1O (centres unmarked) [Arbinose, arbinose] | 542.8 ± 9.1 μA cm^−2 | 0.3 ± 0.0 μA mM^−1 cm^−2 | 
2 | NCC(=O)O [Gly, Glycine] |  |  | ~4.3
3 | O=C(O)CCS [MPA] |  |  | ~4.3

Second part, led by results:

Row | Icat^sat [1] | Sensitivity [1] | Structure (SMILES) | pKa [2]
4 | 748.2 ± 11.7 μA cm^−2 | 10.1 ± 0.2 μA mM^−1 cm^−2 | O=C(CO)[C@@H](O)[C@H](O)[C@H](O)CO [Fructose, D-fructose] | 
5 | 562.4 ± 1.4 μA cm^−2 | 0.4 ± 0.0 μA mM^−1 cm^−2 | O=C(CO)[C@H](O)[C@@H](O)[C@H](O)CO [Sorbose, sorbose] | 
